According to patent US20110112100A1, “Hepatitis C Virus Inhibitors” (priority 2009, published 2011):
Where a name gives a salt, the structure may show the parent alone. Read-outs that look alike come from different tables or passages of the source.

Columns and labels:
[1] = tested on: 1a-H77 replicon cells; assay: HCV 1a replicon inhibitory activity (Renilla luciferase); type: cell-based, hepatitis C virus; settings: Hepatitis C virus, read-out: IC50 value (95% Confidence Intervals) pM Replicon 1A assay
Summary of the method: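 Replicon cells in DMEM + 10% FCS incubated 48 hours at 37° C., 5% CO2 with 1-in-3 serial dilutions of compound prepared in DMSO. Replication read as Renilla luciferase luminescence after lysis. EC50 taken from log concentration-response curves.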

[2] = tested on: 1b (con1) replicon cells; assay: HCV 1b replicon inhibitory activity (luciferase, Britelite Plus); type: cell-based, hepatitis C virus; settings: Hepatitis C virus, read-out: IC50 value (95% Confidence Intervals) pM Replicon 1B assay
Summary of the method: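 1b (con1) luciferase replicon cells in DMEM + 10% FCS were exposed to 1-in-3 DMSO compound dilutions for 48 h at 37° C, 5% CO2. Luminescence was read 1-15 min after Britelite Plus addition; EC50 came from log concentration-response curves.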

[3] = Compound induced cytotoxicity in HCV replicon cell lines (WST-1 reagent); type: cell-based; settings: human, 1b (con1) HCV replicon cells; WST-1, 48 hours; in 1 experiment
Experimental: Test compounds were solubilised to 4 mM in 100% DMSO. Dilutions were made to the desired starting concentration in 100% DMSO and then 1 in 3 dilutions made, again in 100% DMSO. 0.5 μl of each sample was added to 384-well assay plates. White Lumitrac (Greiner) plates were used for the 1a and 1b replicon assays and black, clear bottomed (Greiner) plates were used for the WST-1 cytotoxity assay.
1b (con1) replicon cells were resuspended to a concentration of 1.4×10^5 cells/ml by addition of pre-warmed medium (DMEM+10% FCS). 50 μl of this suspension was added to each well of a 384-well assay plate (Black, clear bottomed, Greiner) already containing 0.5 μl of test compound.
All plates were covered with gas permeable seals and incubated at 37° C., 5% CO2 for 48 hours. After 48 hours, 5 μl WST-1 reagent (Roche, 11 644 807 001) was added to each well and the plate returned to the incubator for 3 hours. After this incubation period absorbance was read at 450 nm on an EnVision (Perkin Elmer) plate reader. The half maximal cytotoxic concentration (CC50) values were calculated for each compound by constructing log concentration-response curves.
All of the exemplified compounds have been screened in a cell proliferation assay (WST-1). A majority have […] in at least 2 independent experiments, the exceptions being the compounds of examples 1, 10, 12, 23, 25, 37, 47, 48, 49, 52, 56, 57, 58, 60, 67, 68, 69, 70, 71, 72, 73, 74, 79, 81 and 84 which have CC50 values>2 μM in 1 experiment, and example 20 where the CC50 is reported as >10 nM (in this instance the top concentration tested in the assay was 10 nM).

[4] = geometric mean, 95% confidence intervals in parentheses, 48 hours, medium with 10% FCS

| Structure (SMILES) | IC50 [1, 4] [pM] | IC50 [2, 4] [pM] | CC50 at 48 h [3] [nM] | IC50 ([1]; 48 h) [pM] | IC50 ([2]; 48 h) [pM] |
| --- | --- | --- | --- | --- | --- |
| CC[C@H](NC(=O)OC)C(=O)N1CCC[C@H]1c1ncc(-c2ccc(-c3ccc4cc(-c5cnc([C@@H]6CCCN6C(=O)[C@H](CC)NC(=O)OC)[nH]5)ccc4c3)cc2)[nH]1 [Example 25, Methyl {(2S)-1-[(2S)-2-{5-[4-(6-{2-[(2S)-1-{(2S)-2-[(methoxycarbonyl)amino]butanoyl}pyrrolidin-2-yl]-1H-imidazol-5-yl}naphthalen-2-yl)phenyl]-1H-imidazol-2-yl}pyrrolidin-1-yl]-1-oxobutan-2-yl}carbamate] | 88.8 | 10.8 | > 2000 |  |  |
| CCC[C@H](NC(C)=O)C(=O)N1CCC[C@H]1c1ncc(-c2ccc3nc(-c4ccc(-c5c[nH]c([C@@H]6CCCN6C(=O)[C@@H](NC(=O)OC)C(C)C)n5)cc4)cnc3c2)[nH]1 [Example 37, Methyl {(2S)-1-[(2S)-2-{4-{4-[6-(2-{(2S)-1-(N-acetyl-L-norvalyl)pyrrolidin-2-yl]-1H-imidazol-5-yl)quinoxalin-2-yl)phenyl]-1H-imidazol-2-yl}pyrrolidin-1-yl]-3-methyl-1-oxobutan-2-yl}carbamate trifluoroacetic acid salt] |  |  | > 2000 | 284 | 42.9 |
| COC(=O)N[C@H](C(=O)N1CCC[C@H]1c1ncc(-c2ccc(-c3ccc4cc(-c5cnc([C@@H]6CCCN6C(=O)[C@@H](NC(=O)OC)C(C)C)[nH]5)cnc4c3)nc2)[nH]1)C(C)C [Example 10, Methyl {(2S)-1-[(2S)-2-{5-[6-(3-{2-[(2S)-1-{(2S)-2-[(methoxycarbonyl)amino]-3-methyl-butanoyl}pyrrolidin-2-yl]-1H-imidazol-5-yl}quinolin-7-yl)pyridin-3-yl]-1H-imidazol-2-yl}pyrrolidin-1-yl]-3-methyl-1-oxobutan-2-yl}carbamate] | 1320 | 49.4 | > 2000 |  |  |
| CC[C@H](NC(=O)OC)C(=O)N1CCC[C@H]1c1ncc(-c2ccc3nc(-c4ccc(-c5c[nH]c([C@@H]6CCCN6C(=O)[C@@H](NC(=O)OC)C(C)C)n5)cc4)cnc3c2)[nH]1 [Example 52, Methyl {(2S)-1-[(2S)-2-{4-[4-(6-{2-[(2S)-1-{(2S)-2-[(methoxycarbonyl)amino]butanoyl}pyrrolidin-2-yl]-1H-imidazol-5-yl}quinoxalin-2-yl)phenyl]-1H-imidazol-2-yl}pyrrolidin-1-yl]-3-methyl-1-oxobutan-2-yl}carbamate trifluoroacetic acid salt] |  |  | > 2000 | 22.1 | 16.6 |
| COC(=O)N[C@H](C(=O)N1CCC[C@H]1c1nc(-c2ccc3nc(-c4ccc(-c5cnc([C@@H]6CCCN6C(=O)[C@@H](NC(=O)OC)C(C)C)[nH]5)cc4)cc(C#N)c3c2)c[nH]1)C(C)C [Example 23, Methyl {(2S)-1-[(2S)-2-{5-[4-(4-cyano-6-{2-[(2S)-1-{(2S)-2-[(methoxycarbonyl)amino]-3-methylbutanoyl}pyrrolidin-2-yl]-1H-imidazol-4-yl}quinolin-2-yl)phenyl]-1H-imidazol-2-yl}pyrrolidin-1-yl]-3-methyl-1-oxobutan-2-yl}carbamate] | 5450 | 58.4 | > 2000 |  |  |
| COC[C@H](NC(=O)OC)C(=O)N1CCC[C@H]1c1ncc(-c2ccc3nc(-c4ccc(-c5c[nH]c([C@@H]6CCCN6C(=O)[C@@H](NC(=O)OC)C(C)C)n5)cc4)cnc3c2)[nH]1 [Example 69, Methyl {(2S)-1-[(2S)-2-{4-[4-(6-{2-[(2S)-1-{(2S)-3-methoxy-2-[(methoxycarbonyl)amino]propanoyl}pyrrolidin-2-yl]-1H-imidazol-5-yl}quinoxalin-2-yl)phenyl]-1H-imidazol-2-yl}pyrrolidin-1-yl]-3-methyl-1-oxobutan-2-yl}carbamate trifluoroacetic acid salt] |  |  | > 2000 | 22.3 | 19.6 |
| COC(=O)N[C@H](C(=O)N1CCC[C@H]1c1ncc(-c2ccc3nc(-c4ccc(-c5c[nH]c([C@@H]6CCCN6C(=O)[C@@H](NC(=O)OC)C(C)C)n5)cc4)cnc3c2)[nH]1)c1ccccc1 [Example 56, Methyl {(2S)-1-[(2S)-2-{4-[4-(6-(2-[(2S)-1-{(2S)-2-[(methoxycarbonyl)amino]-2-phenylacetyl}pyrrolidin-2-yl]-1H-imidazol-5-yl}quinoxalin-2-yl)phenyl]-1H-imidazol-2-yl}pyrrolidin-1-yl]-3-methyl-1-oxobutan-2-yl}carbamate trifluoroacetic acid salt] |  |  | > 2000 | 26.3 | 10.2 |
| COC(=O)N[C@H](C(=O)N1CCC[C@H]1c1nc(-c2ccc(-c3cnc4cc(-c5cnc([C@@H]6CCCN6C(=O)[C@@H](CCc6ccccc6)NC(=O)OC)[nH]5)ccc4n3)cc2)c[nH]1)C(C)C [Example 72, Methyl {(2R)-1-[(2S)-2-{5-[2-(4-{2-[(2S)-1-{(2S)-2-[(methoxycarbonyl)amino]-3-methylbutanoyl}pyrrolidin-2-yl]-1H-imidazol-4-yl}phenyl)quinoxalin-6-yl]-1H-imidazol-2-yl}pyrrolidin-1-yl]-1-oxo-4-phenylbutan-2-yl}carbamate trifluoroacetic acid salt] |  |  | > 2000 | 53.6 | 7.81 |
| COC(=O)N[C@H](C(=O)N1CCC[C@H]1c1nc(-c2ccc(-c3cnc4cc(-c5cnc([C@@H]6CCCN6C(=O)[C@H](NC(=O)OC)c6ccccc6)[nH]5)ccc4n3)cc2)c[nH]1)C(C)C [Example 84, Methyl {(2S)-1-[(2S)-2-{4-[4-(6-{2-[(2S)-1-{(2R)-2-[(methoxycarbonyl)amino]-2-phenylacetyl}pyrrolidin-2-yl]-1H-imidazol-5-yl}quinoxalin-2-yl)phenyl]-1H-imidazol-2-yl}pyrrolidin-1-yl]-3-methyl-1-oxobutan-2-yl}carbamate trifluoroacetic acid salt] |  |  | > 2000 | 19 | 10.9 |
| COC(=O)N[C@H](C(=O)N1CCC[C@H]1c1nc(-c2ccc(-c3cnc4cc(-c5cnc([C@@H]6CCCN6C(=O)[C@H](NC(=O)OC)C(C)(C)C)[nH]5)ccc4n3)cc2)c[nH]1)C(C)C [Example 73, Methyl {(2S)-1-[(2S)-2-{4-[4-(6-{2-[(2S)-1-{(2R)-2-[(methoxycarbonyl)amino]-3,3-dimethylbutanoyl}pyrrolidin-2-yl]-1H-imidazol-5-yl}quinoxalin-2-yl)phenyl]-1H-imidazol-2-yl}pyrrolidin-1-yl]-3-methyl-1-oxobutan-2-yl}carbamate trifluoroacetic acid salt] |  |  | > 2000 | 13.3 | 8.11 |
| COC(=O)N[C@H](C(=O)N1CCC[C@H]1c1nc(-c2ccc(-c3cnc4cc(-c5cnc([C@@H]6CCCN6C(=O)[C@@H](NC(=O)OC)C(C)(C)C)[nH]5)ccc4n3)cc2)c[nH]1)C(C)C [Example 70, Methyl {(2S)-1-[(2S)-2-{4-[4-(6-{2-[(2S)-1-{(2S)-2-[(methoxycarbonyl)amino]-3,3-dimethylbutanoyl}pyrrolidin-2-yl]-1H-imidazol-5-yl}quinoxalin-2-yl)phenyl]-1H-imidazol-2-yl}pyrrolidin-1-yl]-3-methyl-1-oxobutan-2-yl}carbamate trifluoroacetic acid salt] |  |  | > 2000 | 9.13 | 5.17 |
| CC[C@H](NC(=O)OC)C(=O)N1CCC[C@H]1c1nc(-c2ccc(-c3cnc4cc(-c5cnc([C@@H]6CCCN6C(=O)[C@H](CC)NC(=O)OC)[nH]5)cnc4c3)cc2)c[nH]1 [Example 12, Methyl {(2S)-1-[(2S)-2-{4-[4-(7-{2-[(2S)-1-{(2S)-2-[(methoxycarbonyl)amino]butanoyl}pyrrolidin-2-yl]-1H-imidazol-5-yl}-1,5-naphthyridin-3-yl)phenyl]-1H-imidazol-2-yl}pyrrolidin-1-yl]-1-oxobutan-2-yl}carbamate] | 3100 | 358 | > 2000 |  |  |
